From patent publication US8568755B2 (priority 2007, dated 2013)
Values joined by “and” are separate entries in the source; they are usually repeats but may differ in a detail not shown here. Equal values may be shown once. Read-outs that look alike come from different tables or passages of the source.

Columns and labels:
Botrytis cinerea [1] = assay: Test on preventive effect against kidney bean gray mold (Test Example 4); format: in vivo
Protocol: Kidney bean (cultivar: Taisyou Kintoki) was cultivated in a plastic pot having a diameter of 12.0 cm, and when it reached 2.5-leaf stage, a mixed chemical solution having the respective test compounds adjusted to prescribed concentrations, was applied by a spray gun in an amount of 10 ml per seedling. After the chemical solution dried, the leaf was cut out, and a filter paper disk (8 mm in diameter) was placed on the leaf. Then, 120 μl of a suspension of spores of Botrytis cinerea (1.0×10^6 spores/ml) was dropped thereon and inoculated. The system was maintained under a humidity condition at 20° C. for three days, whereupon the area of lesions was investigated, and the diseased area ratio to non-treated section was obtained in the same manner as in Test Example 3. Further, the theoretical value was calculated by a Colby's formula and shown in brackets ( ) in Tables 4-1 to 4-19. Since the diseased area ratio to non-treated section (experimental value) is lower than the theoretical value, the composition of the present invention can be said to have a synergistic effect.

Erysiphe graminis = assay: Test on preventive effect against wheat powdery mildew (Test Example 1); format: in vivo
Sphaerotheca fuliginea = format: in vivo
Phyicularia oryzae = format: cell-based
Septoria nodorum = assay: Test on preventive effect against wheat glum bloth (Test Example 3); format: in vivo
Protocol: Wheat (cultivar: Norin-61-go) was cultivated in a plastic pot having a diameter of 7.5 cm, and when it reached 1.5-leaf stage, a mixed chemical solution having the respective sample compounds adjusted to prescribed concentrations, was applied by a spray gun in an amount of 10 ml per seedling. After the chemical solution dried, a suspension of conidia of Septoria nodorum was sprayed and inoculated and maintained at 20° C. for 7 days (for the first 3 days maintained under high humidity condition). Thereafter, the area of lesions was investigated, and the diseased area ratio to non-treated section was obtained by the following equation. Diseased area ratio to non-treated section=(a/b)×100
a: Average area of lesions in treated section
b: Average area of lesions in non-treated section
Further, the theoretical value was calculated by a Colby's formula and shown in brackets ( ) in Tables 3-1 to 3-14. Since the diseased area ratio to non-treated section (experimental value) is lower than the theoretical value, the composition of the present invention can be said to have a synergistic effect.

Botrytis cinerea [2] = assay: Test on antifungal activity against gray mold pathogen, mycelial growth on agar (Test Example 6); format: cell-based
Protocol: Mycelial growth of Botrytis cinerea preliminarily obtained by cultivation was punched out by a cork borer having a diameter of 4 mm and transplanted on a potato sucrose agar medium containing mixed chemical agents adjusted to prescribed concentrations. The system was left to stand at 25° C. for 3 days for cultivation, whereupon the diameter of mycelial growth was measured. The incidence to non-treated section was obtained in the same manner as the above Test Example 5, and the results are shown in Table 6-1 to 6-3.
Further, the theoretical value was calculated by a Colby's formula and shown in brackets ( ) in Tables 6-1 to 6-3. Since the incidence to non-treated section is lower than the theoretical value, the composition of the present invention can be said to have a synergistic effect.

Botrytis cinerea [3] = assay: Test on antifungal activity against gray mold pathogen, intersecting filter papers (Test Examples 7 and 8); format: cell-based; details: for distance from both ends of the filter paper to mycelial growth area of Botrytis cinerea (average): single use section, 30 ppm; for controlling effect (contact of filter paper with mycelial growth area of Botrytis cinerea): single use, filter paper immersed in 30 ppm solution, 20° C. for 4 days

COC(=O)NCc1cc(/C(C)=N/OCc2cccc(C)n2)ccc1Cl [pyribencarb]
diseased area ratio to non-treated section (experimental value) (Botrytis cinerea [1]; single use at 4 ppm): 70.0
diseased area ratio to non-treated section (experimental value) (Botrytis cinerea [1]; single use at 8 ppm): 65.0

COc1ccccc1N1CCSC1=C(C#N)Sc1cc(C(F)(F)F)ccc1F [Compound γ, 2-(2-fluoro-5-(trifluoromethyl)phenylthio)-2-(3-(2-methoxyphenyl)thiazolidin-2-yliden)acetonitrile, reference compound]
diseased area ratio to non-treated section (experimental value) (Botrytis cinerea [1]; single use at 1 ppm): 88.6
diseased area ratio to non-treated section (experimental value) (Botrytis cinerea [1]; single use at 10 ppm): 88.6

CCCC(C)Oc1ccc(C(=O)C(C)(C)NC(=O)c2ncccc2C(F)(F)F)cc1 (stereo not drawn) [No. 11]
diseased area ratio to non-treated section (Erysiphe graminis; Compound No.x alone 63 ppm): 45.0 and 60.0
diseased area ratio to non-treated section (Erysiphe graminis; Compound No.x alone 125 ppm): 35.0
diseased area ratio to non-treated section (Erysiphe graminis; Compound No.x alone 250 ppm): 22.5 and 12.5
diseased area ratio to non-treated section (Sphaerotheca fuliginea; Compound No.x alone 8 ppm): 4.0

CC1CCN(c2c(-c3c(F)cc(F)cc3F)c(Cl)nc3ncnn23)CC1 [Compound α, 5-chloro-7-(4-methylpiperidin-1-yl)-6-(2,4,6-trifluorophenyl)-[1,2,4]triazolo[1,5-a]pyrimidine, reference compound]
diseased area ratio to non-treated section (experimental value) (Botrytis cinerea [1]; single use at 4 ppm): 43.0
diseased area ratio to non-treated section (experimental value) (Botrytis cinerea [1]; single use at 8 ppm): 15.0

C/C(=N/Nc1nc(C)cc(C)n1)c1ccccc1C [ferimzone]
incidence to non-treated section (mycelial growth diameter) (Phyicularia oryzae; single use at 0.5 ppm): 10.9

Cc1cc(OC(C)C)ccc1C(=O)C(C)(C)NC(=O)c1sccc1C [No. 5]
diseased area ratio to non-treated section (Erysiphe graminis; Compound No.x alone 16 ppm): 25.0
diseased area ratio to non-treated section (Erysiphe graminis; Compound No.x alone 31 ppm): 17.5 and 12.5
diseased area ratio to non-treated section (Erysiphe graminis; Compound No.x alone 63 ppm): 10.0
diseased area ratio to non-treated section (Erysiphe graminis; Compound No.x alone 125 ppm): 2.5
diseased area ratio to non-treated section (Sphaerotheca fuliginea; Compound No.x alone 8 ppm): 2.5

CCCOc1nc2ccc(I)cc2c(=O)n1CCC [proquinazid]
diseased area ratio to non-treated section (experimental value) (Botrytis cinerea [1]; single use at 10 ppm): 96.2
diseased area ratio to non-treated section (experimental value) (Botrytis cinerea [1]; single use at 100 ppm): 92.4

Cc1cc(OC(C)C)ccc1C(=O)C(C)(C)NC(=O)c1sccc1C [Compound No. 5, N-[[2′-methyl-4′-(2-propyloxy)-1,1-dimethyl]phenacyl]-3-methyl-2-thiophenecarboxamide]
diseased area ratio to non-treated section (experimental value) (Septoria nodorum; single use at 12.5 ppm): 30.0
diseased area ratio to non-treated section (experimental value) (Septoria nodorum; single use at 50 ppm): 20.0
diseased area ratio to non-treated section (Erysiphe graminis; Compound (a) alone 250 ppm): 0.6
incidence to non-treated section (mycelial growth diameter) (Botrytis cinerea [2]; single use at 5 ppm): 32.3
diseased area ratio to non-treated section (experimental value) (Botrytis cinerea [1]; single use at 4 ppm): 74.0 and 83.5
diseased area ratio to non-treated section (experimental value) (Botrytis cinerea [1]; single use at 8 ppm): 74.7

OC(Cc1ccccc1Cl)(Cn1nc[nH]c1=S)C1(Cl)CC1 (stereo not drawn) [prothioconazole]
diseased area ratio to non-treated section (experimental value) (Septoria nodorum; single use at 10 ppm): 30.0

O=[N+]([O-])c1cc(C(F)(F)F)c(Cl)c([N+](=O)[O-])c1Nc1ncc(C(F)(F)F)cc1Cl [fluazinam, reference compound]
distance from both ends of the filter paper to mycelial growth area of Botrytis cinerea (average) (Botrytis cinerea [3]): 5 mm
controlling effect (contact of filter paper with mycelial growth area of Botrytis cinerea) (Botrytis cinerea [3]): a certain controlling effect
diseased area ratio to non-treated section (Sphaerotheca fuliginea; partner fungicide alone 125 ppm): 17.5
diseased area ratio to non-treated section (Sphaerotheca fuliginea; partner fungicide alone 250 ppm): 4.0
diseased area ratio to non-treated section (Sphaerotheca fuliginea; partner fungicide alone 500 ppm): 2.0

Cc1ccsc1C(=O)NC(C)(C)C(=O)c1ccc(Cl)c(Cl)c1 [Compound No. 2, N-[(3′,4′-dichloro-1,1-dimethyl)phenacyl]-3-methyl-2-thiophenecarboxamide]
diseased area ratio to non-treated section (experimental value) (Septoria nodorum; single use at 12.5 ppm): 50.0
diseased area ratio to non-treated section (experimental value) (Septoria nodorum; single use at 50 ppm): 35.0
controlling effect (contact of filter paper with mycelial growth area of Botrytis cinerea) (Botrytis cinerea [3]): no adequate controlling effect
incidence to non-treated section (mycelial growth diameter) (Phyicularia oryzae): 82.6
diseased area ratio to non-treated section (Erysiphe graminis; Compound (a) alone 125 ppm): 97.5 and 90.0
diseased area ratio to non-treated section (Erysiphe graminis; Compound (a) alone 250 ppm): 95.0 and 75.0
diseased area ratio to non-treated section (Erysiphe graminis; Compound (a) alone 500 ppm): 70.0
diseased area ratio to non-treated section (experimental value) (Botrytis cinerea [1]; single use at 4 ppm): 65.0

CCCCC(C#N)(Cn1cncn1)c1ccc(Cl)cc1 (stereo not drawn) [myclobutanil]
diseased area ratio to non-treated section (experimental value) (Septoria nodorum; single use at 5 ppm): 60.0
diseased area ratio to non-treated section (experimental value) (Septoria nodorum; single use at 20 ppm): 35.0

Cc1ccsc1C(=O)NC(C)(C)C(=O)c1ccc(OC(C)C)cc1 [No. 8]
diseased area ratio to non-treated section (Erysiphe graminis; Compound No.x alone 63 ppm): 60.0
diseased area ratio to non-treated section (Erysiphe graminis; Compound No.x alone 125 ppm): 55.0 and 30.0
diseased area ratio to non-treated section (Sphaerotheca fuliginea; Compound No.x alone 1 ppm): 81.3
diseased area ratio to non-treated section (Sphaerotheca fuliginea; Compound No.x alone 2 ppm): 45.0 and 75.0

CC1(C)COC(C)(CCCc2ccc(Cl)cc2)N1C(=O)n1ccnc1.CC1(C)COC(C)(CCCc2ccc(Cl)cc2)N1C(=O)n1ccnc1.O=C(O)/C=C/C(=O)O (stereo not drawn) [oxpoconazole fumarate]
distance from both ends of the filter paper to mycelial growth area of Botrytis cinerea (average) (Botrytis cinerea [3]): 7.5 mm

CCCN(CCOc1c(Cl)cc(Cl)cc1Cl)C(=O)n1ccnc1 [prochloraz]
diseased area ratio to non-treated section (experimental value) (Septoria nodorum; single use at 5 ppm): 40.0
diseased area ratio to non-treated section (experimental value) (Septoria nodorum; single use at 20 ppm): 15.0

CO/N=C(/C(=O)OC)c1ccccc1COc1ccccc1C [kresoxim-methyl]
diseased area ratio to non-treated section (Erysiphe graminis; fungicide (b) alone 12.5 ppm): 4.9
diseased area ratio to non-treated section (Erysiphe graminis; fungicide (b) alone 25 ppm): 1.8

CCCC(C)Oc1ccc(C(=O)C(C)(C)NC(=O)c2ncccc2C(F)(F)F)cc1 (stereo not drawn) [Compound No. 11, N-[[4′-(2-pentyloxy)-1,1-dimethyl]phenacyl]-3-trifluoromethyl-2-pyridinecarboxamide]
diseased area ratio to non-treated section (experimental value) (Septoria nodorum; single use at 12.5 ppm): 50.0
diseased area ratio to non-treated section (experimental value) (Septoria nodorum; single use at 50 ppm): 25.0
incidence to non-treated section (mycelial growth diameter) (Phyicularia oryzae): 63.0 and 73.9
diseased area ratio to non-treated section (experimental value) (Sphaerotheca fuliginea; single use at 2 ppm): 7.5 and 12.5 and 15.0 and 10.0
incidence to non-treated section (mycelial growth diameter) (Botrytis cinerea [2]; single use at 5 ppm): 46.0
incidence to non-treated section (mycelial growth diameter) (Botrytis cinerea [2]; single use at 50 ppm): 32.3
diseased area ratio to non-treated section (experimental value) (Botrytis cinerea [1]; single use at 4 ppm): 70.0
diseased area ratio to non-treated section (experimental value) (Botrytis cinerea [1]; single use at 8 ppm): 55.7

Cc1ccsc1C(=O)NC(C)(C)C(=O)c1ccc(OC(C)C)cc1 [Compound No. 8, N-[[4′-(2-propyloxy)-1,1-dimethyl]phenacyl]-3-methyl-2-thiophenecarboxamide]
diseased area ratio to non-treated section (experimental value) (Septoria nodorum; single use at 12.5 ppm): 35.0
diseased area ratio to non-treated section (experimental value) (Septoria nodorum; single use at 50 ppm): 20.0
diseased area ratio to non-treated section (experimental value) (Sphaerotheca fuliginea; single use at 1 ppm): 35.0
diseased area ratio to non-treated section (experimental value) (Sphaerotheca fuliginea; single use at 2 ppm): 10.0

Cc1cc(OC(C)C)ccc1C(=O)C(C)(C)NC(=O)c1ncccc1C(F)(F)F [Compound No. 4, N-[[2′-methyl-4′-(2-propyloxy)-1,1-dimethyl]phenacyl]-3-trifluoromethyl-2-pyridinecarboxamide]
diseased area ratio to non-treated section (experimental value) (Septoria nodorum; single use at 12.5 ppm): 35.0
diseased area ratio to non-treated section (experimental value) (Septoria nodorum; single use at 50 ppm): 20.0
incidence to non-treated section (mycelial growth diameter) (Phyicularia oryzae): 69.6 and 71.7
diseased area ratio to non-treated section (Erysiphe graminis; Compound (a) alone 125 ppm): 5.0 and 3.6
diseased area ratio to non-treated section (Erysiphe graminis; Compound (a) alone 250 ppm): 0.6
diseased area ratio to non-treated section (Sphaerotheca fuliginea; Compound (a) alone 2 ppm): 7.5
incidence to non-treated section (mycelial growth diameter) (Botrytis cinerea [2]; single use at 0.5 ppm): 45.2
diseased area ratio to non-treated section (experimental value) (Botrytis cinerea [1]; single use at 4 ppm): 70.0 and 79.7
diseased area ratio to non-treated section (experimental value) (Botrytis cinerea [1]; single use at 8 ppm): 64.6

O=C(Cc1ccccc1)N/C(=N\OCC1CC1)c1c(C(F)(F)F)ccc(F)c1F [cyflufenamid]
diseased area ratio to non-treated section (experimental value) (Botrytis cinerea [1]; single use at 10 ppm): 87.3
diseased area ratio to non-treated section (experimental value) (Botrytis cinerea [1]; single use at 100 ppm): 82.3

CC(Cc1ccc(C(C)(C)C)cc1)CN1C[C@@H](C)O[C@@H](C)C1 (stereo partly drawn) [fenpropimorph]
diseased area ratio to non-treated section (Erysiphe graminis; fungicide (b) alone 12.5 ppm): 36.4
diseased area ratio to non-treated section (Erysiphe graminis; fungicide (b) alone 25 ppm): 9.1

COc1cc(C)c(C(=O)c2c(OC)ncc(Br)c2Cl)c(OC)c1OC [Compound C, 3-(2,3,4-trimethoxy-6-methylbenzoyl)-5-bromo-4-chloro-2-methoxypyridine]
diseased area ratio to non-treated section (Erysiphe graminis; partner fungicide alone 0.125 ppm): 37.5
diseased area ratio to non-treated section (Erysiphe graminis; partner fungicide alone 0.5 ppm): 6.0

Fc1ccc([C@]2(Cn3cncn3)O[C@H]2c2ccccc2Cl)cc1 (racemic) [epoxiconazole]
diseased area ratio to non-treated section (Erysiphe graminis; fungicide (b) alone 0.5 ppm): 21.2
diseased area ratio to non-treated section (Erysiphe graminis; fungicide (b) alone 1 ppm): 3.0

O=C1C2CC=CCC2C(=O)N1SC(Cl)(Cl)Cl (stereo not drawn) [captan]
incidence to non-treated section (mycelial growth diameter) (Botrytis cinerea [2]; single use at 1 ppm): 94.4

CCO[PH](=O)O [fosetyl-Al]
diseased area ratio to non-treated section (Erysiphe graminis; fungicide (b) alone 500 ppm): 97.5
diseased area ratio to non-treated section (Erysiphe graminis; fungicide (b) alone 1000 ppm): 97.5
